The target in this assay is T1, Glycogen phosphorylase, muscle form (Oryctolagus cuniculus, UniProt P00489).
T1 sequence (P00489 whole entry): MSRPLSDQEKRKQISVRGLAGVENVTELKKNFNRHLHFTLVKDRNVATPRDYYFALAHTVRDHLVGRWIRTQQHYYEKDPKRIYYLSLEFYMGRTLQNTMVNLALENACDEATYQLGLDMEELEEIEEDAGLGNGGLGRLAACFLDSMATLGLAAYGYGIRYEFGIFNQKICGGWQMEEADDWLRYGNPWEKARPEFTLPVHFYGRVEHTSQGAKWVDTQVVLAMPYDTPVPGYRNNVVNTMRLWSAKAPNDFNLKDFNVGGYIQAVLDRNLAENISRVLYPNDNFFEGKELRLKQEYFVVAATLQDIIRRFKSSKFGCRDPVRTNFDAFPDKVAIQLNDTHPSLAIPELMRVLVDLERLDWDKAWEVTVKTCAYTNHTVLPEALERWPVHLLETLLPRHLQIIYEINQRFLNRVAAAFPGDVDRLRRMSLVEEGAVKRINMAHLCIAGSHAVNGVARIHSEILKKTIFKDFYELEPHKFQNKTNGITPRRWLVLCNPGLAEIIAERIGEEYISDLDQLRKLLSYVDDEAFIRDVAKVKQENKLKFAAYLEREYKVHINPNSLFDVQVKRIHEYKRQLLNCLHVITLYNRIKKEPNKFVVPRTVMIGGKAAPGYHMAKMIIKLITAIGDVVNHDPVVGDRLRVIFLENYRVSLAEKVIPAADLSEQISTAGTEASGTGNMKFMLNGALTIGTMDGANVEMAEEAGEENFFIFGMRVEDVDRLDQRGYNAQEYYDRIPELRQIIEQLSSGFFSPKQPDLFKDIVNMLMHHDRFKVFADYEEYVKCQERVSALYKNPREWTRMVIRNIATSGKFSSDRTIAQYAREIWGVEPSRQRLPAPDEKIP
Nature of the assay: Competitive inhibition of rabbit muscle glycogen phosphorylase b assessed as inorganic phosphate release using alphaD glucose-1-phosphate as substrate at pH 6.8 by spectrophotometric analysis. The arrangement: species or system Muscle tissue.

The structures appear in SMILES notation.

Take `OC[C@H]1O[C@@H](c2cc(O)cc(Cl)c2O)[C@H](O)[C@@H](O)[C@@H]1O`: the IC50 worked out at 95 µM.

As for `OC[C@H]1O[C@@H](c2cc(O)ccc2O)[C@H](O)[C@@H](O)[C@@H]1O`, the IC50 was determined as 977 µM and the Ki is 900 µM.

Consider `O=C1C=CC(=O)C([C@@H]2O[C@H](CO)[C@@H](O)[C@H](O)[C@H]2O)=C1`, for which the Ki is 1300 µM.

What is called IC50 is the concentration that inhibits the measured activity by half. Usually Ki stands for a measure of affinity in units of concentration, obtained from inhibition or displacement.

For the origin of these results see ChEMBL document CHEMBL1817566, “Halogen-substituted (C-β-D-glucopyranosyl)-hydroquinone regioisomers: synthesis, enzymatic evaluation and their binding to glycogen phosphorylase” (Bioorg Med Chem, 2011).
